target: T1, HIV-integrase (Human immunodeficiency virus type 1 group M subtype B, UniProt P12497); test: HIV-Integrase Inhibition Activity (SPA bead integration assay with P33 labeled target DNA); format: biochemical; settings: recombinant integrase, class symbols; read-out: in vitro activity
T1 construct: Recombinant integrase (0.26 ng) was incubated with the beads
Procedure, shortened: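 Biotinylated substrate DNA on streptavidin SPA beads loaded with recombinant integrase (90 min, 37° C), washed, then inhibitor plus 0.1 fmol P33-labeled target DNA added. Reaction stopped with 10 mM EDTA; integration measured as CPM by scintillation, giving IC50 ranks.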

Structure (SMILES) | IC50 [nM]
CCOC(=O)[C@@H]1CCCN1C(=O)C(=O)NC12CCC(CC1)Cn1c2nc(C(=O)NCc2ccc(F)cc2)c(O)c1=O [Example 92, Ethyl 1-(((2-((4-fluorobenzyl)carbamoyl)-3-hydroxy-4-oxo-6,7,8,9-tetrahydro-7,11-ethanopyrimido[1,2-a]azepin-10(4H)-yl)amino) (oxo)aceyl)-L-prolinate] | < 10
CN(C)C(=O)C(=O)NC12CCC(CC1)Cn1c2nc(C(=O)NCc2ccccc2-c2ccccc2)c(O)c1=O [Example 387] | < 10
CN(C)CC(=O)NC12CCC(CC1)Cn1c2nc(C(=O)NCc2ccc(F)cc2)c(O)c1=O [Example 29, 10-((N,N-Dimethylglycyl)amino)-N-(4-fluorobenzyl)-3-hydroxy-4-oxo-4,6,7,8,9,10-hexahydro-7,10-ethanopyrimido[1,2-a]azepine-2-carboxamide] | 10 to 100
COc1cc(CNC(=O)c2nc3n(c(=O)c2O)CC2CCC3(N(C)C(=O)C(=O)N(C)C)CC2)ccc1F [Example 160, N-(2-((4-Fluoro-3-methoxybenzyl)carbamoyl)-3-hydroxy-4-oxo-6,7,8,9-tetrahydro-7,10-ethanopyrimido[1,2-a]azepin-10(4H)-yl)-N,N′,N′-trimethylethanediamide] | < 10
CO[C@H]1C[C@@H](C(=O)NC23CCC(CC2)Cn2c3nc(C(=O)NCc3ccc(F)c(C)c3)c(O)c2=O)N(C(=O)c2cc(C)on2)C1 [Example 296, 7,10-Ethanopyrimido[1,2-a]azepine-2-carboxamide, N-[(4-fluoro-3-methylphenyl)methyl]-4,6,7,8,9,10-hexahydro-3-hydroxy-10-[[[(2S,4S)-4-methoxy-1-[(5-methyl-3-isoxazolyl)carbonyl]-2-pyrrolidinyl]carbonyl]amino]-4-oxo-] | < 10
Cn1cc(C(=O)NC23CCC(CC2)Cn2c3nc(C(=O)NCc3ccc(F)cc3)c(O)c2=O)nn1 [Example 248, 7,10-Ethanopyrimido[1,2-a]azepine-2-carboxamide, N-[(4-fluorophenyl)methyl]-4,6,7,8,9,10-hexahydro-3-hydroxy-10-[[(1-methyl-1H-1,2,3-triazol-4-yl)carbonyl]amino]-4-oxo-] | < 10
Cc1cc(CNC(=O)c2nc3n(c(=O)c2O)CC2CCC3(NC(=O)C(C)(C)n3cc(C(=O)N(C)C)nn3)CC2)ccc1F [Example 287, 7,10-Ethanopyrimido[1,2-a]azepine-2-carboxamide, 10-[[2-[4-[(dimethylamino)carbonyl]-1H-1,2,3-triazol-1-yl]-2-methyl-1-oxopropyl]amino]-N-[(4-fluoro-3-methylphenyl)methyl]-4,6,7,8,9,10-hexahydro-3-hydroxy-4-oxo-] | < 10
Cc1cc(C(=O)NC23CCC(CC2)Cn2c3nc(C(=O)NCc3ccc(F)cc3)c(O)c2=O)no1 [Example 28, N-(4-Fluorobenzyl)-3-hydroxy-10-(((5-methyl-3-isoxazolyl)carbonyl)amino)-4-oxo-4,6,7,8,9,10-hexahydro-7,10-ethanopyrimido[1,2-a]azepine-2-carboxamide] | < 10
COCCN1CCN(C(=O)C(=O)NC23CCC(CC2)Cn2c3nc(C(=O)NCc3ccc(F)cc3)c(O)c2=O)CC1 [Example 73, N-(4-Fluorobenzyl)-3-hydroxy-10-(((4-(2-methoxyethyl)-1-piperazinyl)(oxo)acetyl)amino)-4-oxo-4,6,7,8,9,10-hexahydro-7,10-ethanopyrimido[1,2-a]azepine-2-carboxamide] | < 10
Cc1c(C(=O)NC23CCC(CC2)Cn2c3nc(C(=O)NCc3ccc(F)cc3)c(O)c2=O)ncn1C [Example 242, 7,10-Ethanopyrimido[1,2-a]azepine-2-carboxamide, 10-[[(1,5-dimethyl-1H-imidazol-4-yl)carbonyl]amino]-N-[(4-fluorophenyl)methyl]-4,6,7,8,9,10-hexahydro-3-hydroxy-4-oxo-] | < 10
Cc1nn(C)cc1CN(C)C(=O)C(=O)N(C)C12CCC(CC1)Cn1c2nc(C(=O)NCc2ccc(F)cc2)c(O)c1=O [Example 169, N-((1,3-Dimethyl-1H-pyrazol-4-yl)methyl)-N′-(2-((4-fluorobenzyl)carbamoyl)-3-hydroxy-4-oxo-6,7,8,9-tetrahydro-7,10-ethanopyrimido[1,2-a]azepin-10(4H)-yl)-N,N′-dimethylethanediamide] | < 10
Cc1cc(C(=O)N(C)C23CCC(CC2)Cn2c3nc(C(=O)NCc3ccc(F)cc3)c(O)c2=O)no1 [Example 154, N-(4-Fluorobenzyl)-3-hydroxy-10-(methyl((5-methyl-3-isoxazolyl)carbonyl)amino)-4-oxo-4,6,7,8,9,10-hexahydro-7,10-ethanopyrimido[1,2-a]azepine-2-carboxamide] | < 10
C=C[C@@H]1C[C@]1(NC(C)=O)C(=O)NC12CCC(CC1)Cn1c2nc(C(=O)NCc2ccc(F)cc2)c(O)c1=O [Example 277, 7,10-Ethanopyrimido[1,2-a]azepine-2-carboxamide, 10-[[[(1R,2S)-1-(acetylamino)-2-ethenylcyclopropyl]carbonyl]amino]-N-[(4-fluorophenyl)methyl]-4,6,7,8,9,10-hexahydro-3-hydroxy-4-oxo-] | 10 to 100
COc1ccccc1CNC(=O)c1nc2n(c(=O)c1O)CC1CCC2(NC(=O)C(=O)N(C)C)CC1 [Example 369] | < 10
Cc1oncc1S(=O)(=O)NC12CCC(CC1)Cn1c2nc(C(=O)NCc2ccc(F)cc2)c(O)c1=O [Example 393] | < 10
CN(C)C(=O)C(=O)N(C)C12CCC(CCn3c1nc(C(=O)NCc1ccc(F)cc1)c(O)c3=O)C2 (centres unmarked) [Example 211, Ethanediamide, N-[2-[[[(4-fluorophenyl)methyl]amino]carbonyl]-7,8,9,10-tetrahydro-3-hydroxy-4-oxo-8,11-methano-4H-pyrimido[1,2-a]azocin-11(6H)-yl]-N,N′,N′-trimethyl-] | < 10
Cc1nn(C)cc1CN(C)C(=O)C(=O)NC12CCC(CC1)Cn1c2nc(C(=O)NCc2ccc(F)cc2)c(O)c1=O [Example 96, N-((1,3-Dimethyl-1H-pyrazol-4-yl)methyl)-N′-(2-((4-fluorobenzyl)carbamoyl)-3-hydroxy-4-oxo-6,7,8,9-tetrahydro-7,10-ethanopyrimido[1,2-a]azepin-10(4H)-yl)-N-methylethanediamide] | < 10
CN(CCO)C(=O)C(=O)NC12CCC(CC1)Cn1c2nc(C(=O)NCc2ccc(F)cc2)c(O)c1=O [Example 81, N′-(2-((4-Fluorobenzyl)carbamoyl)-3-hydroxy-4-oxo-6,7,8,9-tetrahydro-7,10-ethanopyrimido[1,2-a]azepin-10(4H)-yl)-N-(2-hydroxyethyl)-N-methylethanediamide] | < 10
O=C(NC12CCC(CC1)Cn1c2nc(C(=O)NCc2ccc(F)cc2)c(O)c1=O)C(=O)N1CCN(c2ccccn2)CC1 [Example 78, N-(4-Fluorobenzyl)-3-hydroxy-4-oxo-10-((oxo(4-(2-pyridinyl)-1-piperazinyl)acetyl)amino)-4,6,7,8,9,10-hexahydro-7,10-ethanopyrimido[1,2-a]azepine-2-carboxamide] | < 10
CC(C)CNC(=O)c1nc2n(c(=O)c1O)CC1CCC2(NC(=O)C(=O)N(C)C)CC1 [Example 341] | > 100
CN(C)C(=O)C(=O)NC12CCC(CC1)Cn1c2nc(C(=O)NCc2nc3ccccc3s2)c(O)c1=O [Example 360] | < 10
Cc1ccccc1CNC(=O)c1nc2n(c(=O)c1O)CC1CCC2(NC(=O)C(=O)N(C)C)CC1 [Example 370] | < 10
O=C(NCc1ccc(F)cc1)c1nc2n(c(=O)c1O)CC1CCC2(NS(=O)(=O)c2ccccc2)CC1 [Example 395] | < 10
CN(C)C(=O)C(=O)NC12CCC(CC1)Cn1c2nc(C(=O)NCc2c[nH]c3ccccc23)c(O)c1=O [Example 235, Ethanediamide, N,N-dimethyl-N′-[6,7,8,9-tetrahydro-3-hydroxy-2-[[(1H-indol-3-ylmethyl)amino]carbonyl]-4-oxo-7,10-ethanopyrimido[1,2-a]azepin-10(4H)-yl]-] | < 10
COC1CN(C(=O)C(=O)NC23CCC(CC2)Cn2c3nc(C(=O)NCc3ccc(F)cc3)c(O)c2=O)C1 [Example 66, N-(4-Fluorobenzyl)-3-hydroxy-10-(((3-methoxy-1-azetidinyl) (oxo)acetyl)amino)-4-oxo-4,6,7,8,9,10-hexahydro-7,10-ethanopyrimido[1,2-a]azepine-2-carboxamide] | < 10
O=C(NC12CCC(CC1)Cn1c2nc(C(=O)NCc2ccc(F)cc2)c(O)c1=O)NS(=O)(=O)c1ccccc1 [Example 330, 7,10-Ethanopyrimido[1,2-a]azepine-2-carboxamide, N-[(4-fluorophenyl)methyl]-4,6,7,8,9,10-hexahydro-3-hydroxy-4-oxo-10-[[[(phenylsulfonyl)amino]carbonyl]amino]-] | < 10
Cn1ccc(C(=O)NC23CCC(CC2)Cn2c3nc(C(=O)NCc3ccc(F)cc3)c(O)c2=O)n1 [Example 245, 7,10-Ethanopyrimido[1,2-a]azepine-2-carboxamide, N-[(4-fluorophenyl)methyl]-4,6,7,8,9,10-hexahydro-3-hydroxy-10-[[(1-methyl-1H-pyrazol-3-yl)carbonyl]amino]-4-oxo-] | < 10
CN(C)C(=O)C(=O)N(C)C12CCC(CC1)Cn1c2nc(C(=O)NCc2ccc(F)c(Cl)c2)c(O)c1=O [Example 158, N-(2-((3-Chloro-4-fluorobenzyl)carbamoyl)-3-hydroxy-4-oxo-6,7,8,9-tetrahydro-7,10-ethanopyrimido[1,2-a]azepin-10(4H)-yl)-N,N′,N′-trimethylethanediamide] | < 10
CN(C)CC(=O)NC12CCC(CC1)n1c2nc(C(=O)NCc2ccc(F)cc2)c(O)c1=O [Example 14, 6,9-Ethano-4H-pyrido[1,2-a]pyrimidine-2-carboxamide, 9-[[(dimethylamino)acetyl]amino]-N-[(4-fluorophenyl)methyl]-6,7,8,9-tetrahydro-3-hydroxy-4-oxo-] | 10 to 100

Reference: patent US8129398B2 (priority 2008, dated 2012)
